This is an account of results in patent US12486284B2, “Ubiquitin-specific protease inhibitor and preparation method therefor and use thereof” (CHASER THERAPEUTICS, INC., priority 2019, dated 2025).

Read-outs that look alike come from different tables or passages of the source.

The target in one assay is T1, USP25 (Homo sapiens, UniProt Q9UHP3).
T1 construct: purchased R&D Systems
T1 sequence (Q9UHP3 1-1055): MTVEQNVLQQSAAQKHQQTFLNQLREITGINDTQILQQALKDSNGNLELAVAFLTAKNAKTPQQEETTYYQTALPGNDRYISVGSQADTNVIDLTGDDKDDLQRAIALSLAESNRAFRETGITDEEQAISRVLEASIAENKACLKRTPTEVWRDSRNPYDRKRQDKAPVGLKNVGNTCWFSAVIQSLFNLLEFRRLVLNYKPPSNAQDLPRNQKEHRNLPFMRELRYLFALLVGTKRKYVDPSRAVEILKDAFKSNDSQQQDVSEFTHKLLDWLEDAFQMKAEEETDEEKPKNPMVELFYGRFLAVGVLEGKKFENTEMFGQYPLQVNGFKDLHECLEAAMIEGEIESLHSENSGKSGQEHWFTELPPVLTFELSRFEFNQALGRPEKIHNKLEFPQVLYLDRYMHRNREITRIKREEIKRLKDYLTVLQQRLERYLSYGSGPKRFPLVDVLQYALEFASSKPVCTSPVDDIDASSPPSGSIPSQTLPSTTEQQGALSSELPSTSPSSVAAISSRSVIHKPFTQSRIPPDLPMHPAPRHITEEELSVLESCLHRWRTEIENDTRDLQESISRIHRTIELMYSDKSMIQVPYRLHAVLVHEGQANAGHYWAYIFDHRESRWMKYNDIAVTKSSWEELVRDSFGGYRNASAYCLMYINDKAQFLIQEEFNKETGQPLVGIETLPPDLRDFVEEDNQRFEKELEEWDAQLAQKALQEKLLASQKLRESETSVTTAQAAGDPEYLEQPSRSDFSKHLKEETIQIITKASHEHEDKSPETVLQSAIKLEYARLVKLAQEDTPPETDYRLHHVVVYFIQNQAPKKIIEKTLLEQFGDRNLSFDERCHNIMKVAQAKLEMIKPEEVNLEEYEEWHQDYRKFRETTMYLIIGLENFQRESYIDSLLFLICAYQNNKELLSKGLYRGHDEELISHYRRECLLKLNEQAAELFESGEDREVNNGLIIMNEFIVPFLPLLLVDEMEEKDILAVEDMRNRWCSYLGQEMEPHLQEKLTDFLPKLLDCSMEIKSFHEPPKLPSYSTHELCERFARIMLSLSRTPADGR
The experiment in a line: USP25 activity measured using ubiquitin-rhodamine 110 method. The following applies: purified USP25 15 nM, ubiquitin-rhodamine 110 125 nM, 30 min preincubation. In kind it is biochemical. Here is the method: USP25 activity was measured using ubiquitin-rhodamine 110 method.
(§1) Purified USP25 and the ubiquitin-rhodamine 110 substrate used for measuring DUBs activity were both from R&D Systems. Test compounds were first dissolved in DMSO to prepare a 10 mM stock solution, and then the stock solution was diluted with a buffer solution [containing 20 mM Tris-HCl (pH 8.0), 2 mM CaCl2), 3 mM BME, 0.01% Prionix, 0.01% Triton X-100] to the desired concentration (with DMSO content less than or equal to 0.5%). The dilution was mixed well with USP25 (final concentration 15 nM) in a 96-well plate and incubated at room temperature for 30 min, and then added with the substrate (ubiquitin-rhodamine 110) to 125 nM. The final volume of the whole reaction system was 20 μL. The released fluorescence (excitation wavelength 485 nm, emission wavelength 535 nm) was detected immediately on a microplate reader after the addition of the substrate, and the inhibitory rate of the test compound against USP25 was calculated according to the following formula: Inhibition %=1−[(test compound+fluorescence value of substrate−fluorescence value of test compound (no substrate))/mean fluorescence value of DMSO control group−fluorescence value of test compound (no substrate)]
As in Example 11, according to the inhibitory rates of the test compound against USP25 under different concentrations, IC50 was calculated.

Another assay has as its target T2, USP28 (Homo sapiens, UniProt Q96RU2).
T2 construct: purchased R&D Systems
T2 sequence (Q96RU2 1-1077): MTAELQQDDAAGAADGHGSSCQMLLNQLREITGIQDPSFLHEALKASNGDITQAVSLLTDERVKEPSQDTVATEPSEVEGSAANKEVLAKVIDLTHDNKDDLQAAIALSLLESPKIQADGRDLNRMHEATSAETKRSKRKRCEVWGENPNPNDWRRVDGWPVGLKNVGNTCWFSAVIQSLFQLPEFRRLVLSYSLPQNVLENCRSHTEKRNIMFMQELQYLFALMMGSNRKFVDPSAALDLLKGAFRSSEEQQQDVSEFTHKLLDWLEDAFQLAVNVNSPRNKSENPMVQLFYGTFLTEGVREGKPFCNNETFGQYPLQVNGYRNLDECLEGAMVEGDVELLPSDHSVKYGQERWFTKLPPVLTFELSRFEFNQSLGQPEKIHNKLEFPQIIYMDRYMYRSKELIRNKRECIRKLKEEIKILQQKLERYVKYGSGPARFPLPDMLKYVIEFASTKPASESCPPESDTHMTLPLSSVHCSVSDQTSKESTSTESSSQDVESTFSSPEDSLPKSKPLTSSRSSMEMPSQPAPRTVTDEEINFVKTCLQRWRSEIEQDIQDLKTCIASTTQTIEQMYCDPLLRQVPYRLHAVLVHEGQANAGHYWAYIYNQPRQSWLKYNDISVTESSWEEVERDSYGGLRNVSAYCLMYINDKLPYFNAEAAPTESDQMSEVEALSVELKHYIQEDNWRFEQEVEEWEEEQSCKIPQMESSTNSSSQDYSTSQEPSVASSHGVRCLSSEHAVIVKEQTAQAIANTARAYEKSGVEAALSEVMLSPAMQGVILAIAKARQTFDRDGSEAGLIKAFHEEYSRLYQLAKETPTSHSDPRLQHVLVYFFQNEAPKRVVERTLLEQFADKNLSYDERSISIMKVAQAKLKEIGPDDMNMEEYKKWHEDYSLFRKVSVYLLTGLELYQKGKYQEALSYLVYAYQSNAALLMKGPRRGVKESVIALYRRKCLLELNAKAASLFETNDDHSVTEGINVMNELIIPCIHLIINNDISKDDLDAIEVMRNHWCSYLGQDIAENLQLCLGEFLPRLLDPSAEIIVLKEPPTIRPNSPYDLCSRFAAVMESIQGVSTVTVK
The experiment in a line: USP28 activity measured using ubiquitin-rhodamine 110 method. In kind it is biochemical. The following applies: purified USP28 4 nM, ubiquitin-rhodamine 110 125 nM, 30 min preincubation. Here is the method:
USP28 activity was measured using ubiquitin-rhodamine 110 method.
as §1, with “USP28” for “USP25”, “4” for “15”, “substrate. The” for “substrate, and the”
According to the inhibitory rates of the test compound against USP28 under different concentrations, IC50 was calculated.

[1] abbreviates: read-out: Inhibitory activity against USP25 (IC50).
The mark [2] stands for this setting: read-out: Inhibitory activity against USP28 (IC50).
Where [3] appears, read: Inhibitory activity against USP28 (IC50).

For `CCCNc1c(C(=O)NCCc2ccc(N3C[C@H]4CC[C@@H](C3)N4)cc2)sc2nc(C)ccc12` [Compound I-24], the IC50 was above 10 µM on USP25 (setting [1]) and 0.1 to 1 µM on USP28 (setting [2]).
On to `CNc1c(C(=O)NCCc2ccc(N3C[C@H]4CC[C@@H](C3)N4)c(OC)c2)sc2nc(C)ccc12` [Compound I-36], for which the half-inhibitory concentration (IC50) against USP25 (Inhibitory activity against USP25 (IC50)) and at USP28 (setting [3]) was below 0.1 µM throughout.
For `CNc1c(C(=O)NCCc2ccc(N3C[C@H]4CC[C@@H](C3)N4)c(C3CC3)c2)sc2nc(C)ccc12` [Compound I-35], the results for the half-inhibitory concentration (IC50) at USP25 (setting [1]) and against USP28 (setting [3]) were 0.1 to 1 µM and below 0.1 µM, respectively.
For `CNc1c(C(=O)NCCc2ccc(N3C[C@H]4CC[C@@H](C3)N4)cc2F)sc2nc(Cl)cnc12` [Compound I-81], the IC50 was above 10 µM at USP25 (setting [1]) and 1 to 5 µM at USP28 (setting [2]).
In the case of `CNc1c(C(=O)NCCc2ccc(N3C[C@H]4CC[C@@H](C3)N4)cc2)sc2nc(C)cnc12` [Compound I-71], the IC50 on USP25 (setting [1]) is 5 to 10 µM; at USP28 (setting [3]), below 0.1 µM.
Take `CNc1c(C(=O)N[C@@H]2Cc3ccc(N4CC5CCC(C4)N5)cc3C2)sc2nc(C)ccc12` [Compound I-83]: the concentration for half-maximal inhibition (IC50) on USP25 (setting [1]) is 5 to 10 µM; on USP28 (setting [2]) it was 0.1 to 1 µM.
Regarding `CNc1c(C(=O)NCCc2ccc(N3C[C@H]4CC[C@@H](C3)N4)cc2)sc2nc(OC)ccc12` [Compound I-17], the IC50 at USP25 (setting [1]) and at USP28 (setting [2]) was 0.1 to 1 µM in each case.
Consider `CNc1c(C(=O)NCCc2ccc(N3C[C@H]4CC[C@@H](C3)N4)cc2)sc2nc(C)cc(C)c12` [Compound I-26], for which the concentration for half-maximal inhibition (IC50) was in the range of 5 to 10 µM at USP25 (setting [1]) and 0.1 to 1 µM at USP28 (setting [2]).
Consider `CNc1c(C(=O)NC[C@H](C)c2ccc(N3C[C@H]4CC[C@@H](C3)N4)cc2)sc2nc(C)ccc12` [Compound I-67], for which the IC50 at USP25 (setting [1]) and at USP28 (setting [2]) was 0.1 to 1 µM throughout.
With `CNc1c(C(=O)NCCc2ccc(N3C[C@H]4CC[C@@H](C3)N4)cc2)sc2nc(C)c(C)cc12` [Compound I-30], the half-maximal inhibitory concentration (IC50) on USP25 (setting [1]) was in the range of 1 to 5 µM; at USP28 (setting [2]), 0.1 to 1 µM.
With `CNc1c(C(=O)NCCc2ccc(N3C[C@H]4CC[C@@H](C3)N4)c(C(F)(F)F)c2)sc2nc(C)ccc12` [Compound I-41], the half-maximal inhibitory concentration (IC50) on USP25 (setting [1]) was above 10 µM; at USP28 (setting [2]), 0.1 to 1 µM.
On to `CNc1c(C(=O)NCCc2ccc(N3C[C@H]4CC[C@@H](C3)N4)cc2)sc2nc(C3CC3)ccc12` [Compound I-15], for which the IC50 on USP25 (setting [1]) was 1 to 5 µM; at USP28 (setting [3]), below 0.1 µM.
For `CNc1c(C(=O)NCCc2ccc(N3C[C@H]4CC[C@@H](C3)N4)cc2)sc2ncc(C)cc12` [Compound I-19], the figures for the IC50 at USP25 (setting [1]) and at USP28 (setting [2]) were above 10 µM and 1 to 5 µM, respectively.
As for `CCc1nc2sc(C(=O)NCCc3ccc(OC)c(OC)c3)c(NC)c2c(C(F)(F)F)c1C` [Compound I-59], the IC50 at USP25 (setting [1]) is 1 to 5 µM; on USP28 (setting [2]), below 0.1 µM.
Regarding `CNc1c(C(=O)NCCc2ccc(C3CC4CC3CN4)cc2)sc2nc(C)ccc12` (centres unmarked) [Compound I-7], the results for the IC50 at USP25 (setting [1]) and on USP28 (setting [2]) were 0.1 to 1 µM and below 0.1 µM, respectively.
Take `CNc1c(C(=O)NCCc2ccc(N3C[C@H]4CC[C@@H](C3)N4)cc2)sc2nc(CO)ccc12` [Compound I-22]: the 50% inhibitory concentration (IC50) at USP25 (setting [1]) and on USP28 (setting [2]) was 0.1 to 1 µM in each case.
As for `CNc1c(C(=O)NCCc2ccc(N3CC4CC3CN4)cc2)sc2nc(C)ccc12` (centres unmarked) [Compound I-8], the concentration for half-maximal inhibition (IC50) on USP25 (setting [1]) and at USP28 (setting [2]) was below 0.1 µM in each case.
Take `CNc1c(C(=O)NCCc2ccc(N3C[C@H]4CC[C@@H](C3)N4)c(F)c2)sc2nc(C)ccc12` [Compound I-40]: the figures for the IC50 on USP25 (setting [1]) and against USP28 (setting [3]) were 0.1 to 1 µM and below 0.1 µM, respectively.
Turning to `CNc1c(C(=O)NCCc2ccc(N3C[C@H]4CC[C@@H](C3)N4)cc2)sc2nc(Cl)ccc12` [Compound I-82], the IC50 on USP25 (setting [1]) and on USP28 (setting [2]) was 0.1 to 1 µM each time.
Turning to `CNc1c(C(=O)N[C@@H](C)Cc2ccc(N3C[C@H]4CC[C@@H](C3)N4)cc2)sc2nc(C)ccc12` [Compound I-63], the half-inhibitory concentration (IC50) on USP25 (setting [1]) is above 10 µM; on USP28 (setting [2]), 0.1 to 1 µM.
Turning to `CNc1c(C(=O)NCCc2cc(F)c(N3C[C@H]4CC[C@@H](C3)N4)c(Cl)c2)sc2nc(C)ccc12` [Compound I-44], the figures for the IC50 at USP25 (setting [1]) and at USP28 (setting [3]) were above 10 µM and below 0.1 µM, respectively.
`CNc1ccc2c(NC)c(C(=O)NCCc3ccc(N4C[C@H]5CC[C@@H](C4)N5)cc3)sc2n1` [Compound I-94]: the results for the half-maximal inhibitory concentration (IC50) on USP25 (setting [1]) and at USP28 (setting [2]) were above 10 µM and 0.1 to 1 µM, respectively.
Regarding `CCCCc1ccc2c(NC)c(C(=O)NCCc3ccc(N4C[C@H]5CC[C@@H](C4)N5)cc3)sc2n1` [Compound I-13], the concentration for half-maximal inhibition (IC50) at USP25 (setting [1]) is above 10 µM; at USP28 (setting [3]), below 0.1 µM.
With `CCc1nc2sc(C(=O)NCCc3c[nH]c4ccccc34)c(NC)c2cc1C` [Compound I-52], the IC50 at USP25 (setting [1]) was 5 to 10 µM; at USP28 (setting [2]) it was below 0.1 µM.
On to `CNc1c(C(=O)NC2COc3cc(N4CC5CCC(C4)N5)ccc3C2)sc2nc(C)cnc12` (single isomer, unassigned) [Compound I-87], for which the figures for the IC50 on USP25 (setting [1]) and against USP28 (setting [3]) were 0.1 to 1 µM and below 0.1 µM, respectively.
